One data set deals with Citric Acid-Induced Cough Reflex in Guinea Pigs. In words: Inhibitory effect on citric acid-induced cough reflex in guinea pigs (Experimental Example 1-1, plethysmograph). It counts as in vivo. The settings on record: oral, 10 mg/kg, cough measured 1 hr after treatment. As to the method:
Guinea pigs were fasted overnight. They were fixed to a plethysmograph, and then the change of inner pressure in the plethysmograph (body side) was recorded on an ink-recording paper (Nihon Kohden Corporation; WI-642G) via the differential pressure transducer (Nihon Kohden Corporation; TP-602T) and the respiration amplifier (Nihon Kohden Corporation; AR-601G). Using a nebulizer (OMRON Corporation; NE-U12), 20 W/V % citric acid solution was sprayed into the plethysmograph (head side) for 2 min (about 1 mL/min). The number of cough response for 15 min after the spray was measured.
(§1) The cough response was measured 3 hrs before and 1 hr after oral treatment. The test compound was not administered to the guinea pigs showing 5 coughs response or less before the treatment. The ratio of cough response between before and after the treatment (Post/Pre×100) was calculated, and the percent inhibition of the test compound on cough reflex induced by citric acid was determined according to the following formula: [(CRRcontrol−CRRtest)/(CRRcontrol)]×100 (%) • CRRcontrol: Ratio (%) of cough response in the control group • CRRtest: Ratio (%) of cough response in the compound-treated group
Consider `COc1ccc2c3c1O[C@H]1[C@@H](O)C=C[C@H]4[C@@H](C2)N(C)CC[C@@]341` [Codeine phosphate], for which the “Percent inhibition on cough reflex” value turned out to be 40%.

Staying with this data set, now noted: oral, 20 mg/kg, cough measured 1 hr after treatment.
Regarding `Cn1c(=O)c2[nH]cnc2n(C)c1=O` [Theophylline], the “Percent inhibition on cough reflex” value amounted to 37%.

The data set is the same for the next values; noted with them: oral, 30 mg/kg, cough measured 1 hr after treatment.
Take `COc1ccc2c3c1O[C@H]1[C@@H](O)C=C[C@H]4[C@@H](C2)N(C)CC[C@@]341` [Codeine phosphate]: the “Percent inhibition on cough reflex” value came to 44%.

Staying with this data set, now noted: oral, 60 mg/kg, cough measured 1 hr after treatment.
Consider `COc1ccc2c3c1O[C@H]1[C@@H](O)C=C[C@H]4[C@@H](C2)N(C)CC[C@@]341` [Codeine phosphate], for which the “Percent inhibition on cough reflex” value is given as 66%.

Test system in a further data set: not given
Assay: not given
Conditions: not given
`CN(CC1(O)CCN(CCc2ccc(C#N)cc2)CC1)c1ccc(C(=O)O)cc1Cl.Cl` displayed a melting point of 254.2 to 258.9 °C.

With `COc1cc(N(C)CC2(O)CCN(CCc3ccc(C#N)cc3)CC2)c(Cl)cc1C(=O)O.Cl`, the melting point lay in the range of 116.3 to 120.8 °C.

Turning to `CN(CC1(O)CCCN(CCc2ccc(C#N)cc2)C1)c1ccc(C(=O)O)cc1.Cl` (stereo not shown), the melting point was in the range of 220.1 to 233.3 °C.

`CN(CCC1(O)CCN(CCc2ccc(C#N)cc2)CC1)c1ccc(C(=O)O)cc1.Cl` came in with a melting point of 231.3 to 236.4 °C.

As for `Cc1cc(C(=O)O)ccc1N(C)CC1(O)CCN(CCc2ccc(C#N)cc2)CC1.Cl`, the melting point is 127.1 to 132.7 °C.

Molecule `CN(CC1(O)CCN(CCc2ccc(C#N)cc2)CC1)c1ccc(C(=O)O)c(Cl)c1.Cl` yielded a melting point of 145.2 to 148 °C.

Molecule `CN(CC1(O)CCN(CCc2ccc(C#N)cc2)CC1)c1ccc(C(=O)NO)cc1.Cl` had a melting point of 191.3 to 193.9 °C.

In turn, `CN(CC1(O)CCN(Cc2ccc(C#N)cc2)CC1)c1ccc(C(=O)O)cc1.Cl` gave a melting point of 153.1 to 157.7 °C.

Regarding `CN(CC1(O)CCN(CCCc2ccc(C#N)cc2)CC1)c1ccc(C(=O)O)cc1.Cl`, the melting point is 150.1 to 151.2 °C.

Take `CN(CC1(O)CCN(CCOc2ccc(C#N)cc2)CC1)c1ccc(C(=O)O)cc1.Cl`: the melting point lay within 258.4 to 260.1 °C.

Molecule `COC1(CN(C)c2ccc(C(=O)O)cc2)CCN(CCc2ccc(C#N)cc2)CC1.Cl` returned a melting point of 226.3 to 230.7 °C.

Consider `Cl.N#Cc1ccc(CCN2CCC(O)(C[S+]([O-])c3ccc(C(=O)O)cc3)CC2)cc1` (stereo not shown), for which the melting point was 279.7 °C (dec.).

As for `Cc1cc(C(=O)O)ccc1N(C)CC1(O)CCN(CCc2ccc(C#N)cc2)CC1` [Example 3, 4-({1-[2-(4-cyanophenyl)ethyl]-4-hydroxypiperidin-4-ylmethyl}methylamino)-3-methylbenzoic acid], the melting point was 103.6 to 108.7 °C.

Turning to `COc1cc(C(=O)O)ccc1N(C)CC1(O)CCN(CCc2ccc(C#N)cc2)CC1` [Example 4, 4-({1-[2-(4-cyanophenyl)ethyl]-4-hydroxypiperidin-4-ylmethyl}methylamino)-3-methoxybenzoic acid], the melting point was 252.6 °C (dec.).

`CN(CC1(O)CCN(CCc2ccc(C#N)cc2)CC1)c1ccc(C(=O)O)c(Cl)c1` [Example 5, 2-chloro-4-({1-[2-(4-cyanophenyl)ethyl]-4-hydroxypiperidin-4-ylmethyl}methylamino)benzoic acid] had a melting point of 186.2 to 189.6 °C.

For the molecule `CN(CC1(O)CCN(CCc2ccc(C#N)cc2)CC1)c1ccc(C(=O)O)cc1Cl` [Example 6, 3-chloro-4-({1-[2-(4-cyanophenyl)ethyl]-4-hydroxypiperidin-4-ylmethyl}methylamino)benzoic acid], the melting point lay within 110.7 to 112.4 °C.

`COc1cc(N(C)CC2(O)CCN(CCc3ccc(C#N)cc3)CC2)c(Cl)cc1C(=O)O` [Example 7, 5-chloro-4-({1-[2-(4-cyanophenyl)ethyl]-4-hydroxypiperidin-4-ylmethyl}methylamino)-2-methoxybenzoic acid] displayed a melting point of 226.8 to 228.3 °C.

With `CN(CC1(O)CCCN(CCc2ccc(C#N)cc2)C1)c1ccc(C(=O)OC(C)(C)C)cc1` (stereo not shown) [Example 9, tert-butyl 4-({1-[2-(4-cyanophenyl)ethyl]-3-hydroxypiperidin-3-ylmethyl}methylamino)benzoate], the melting point was in the range of 41.2 to 44.1 °C.

`COC(=O)c1ccc(N(C)CC2(O)CN(CCc3ccc(C#N)cc3)C2)cc1` [Example 10, methyl 4-({1-[2-(4-cyanophenyl)ethyl]-3-hydroxyazetidin-3-ylmethyl}methylamino)benzoate]: the melting point was 145.5 to 149.1 °C.

As for `COC(=O)c1ccc(N(C)CC2(O)CCN(CCc3ccc(C#N)cc3)CC2)cc1` [Example 12, methyl 4-({1-[2-(4-cyanophenyl)ethyl]-4-hydroxypiperidin-4-ylmethyl}methylamino)benzoate], the melting point was 140.5 to 142.2 °C.

For the molecule `COC(=O)c1ccc(OCC2(O)CCN(CCc3ccc(C#N)cc3)CC2)cc1` [Example 13, methyl 4-{1-[2-(4-cyanophenyl)ethyl]-4-hydroxypiperidin-4-ylmethoxy}benzoate], the melting point was 118.6 to 120.6 °C.

With `CN(CC1(O)CCN(CCc2ccc(C#N)cc2)C1)c1ccc(C(=O)O)cc1` (stereo not shown) [Example 14, 4-({1-[2-(4-cyanophenyl)ethyl]-3-hydroxypyrrolidin-3-ylmethyl}methylamino)benzoic acid], the melting point was 106.1 to 130.8 °C.

In turn, `CN(CC1(O)CCCN(CCc2ccc(C#N)cc2)C1)c1ccc(C(=O)O)cc1` (stereo not shown) [Example 15, 4-({1-[2-(4-cyanophenyl)ethyl]-3-hydroxypiperidin-3-ylmethyl}methylamino)benzoic acid] had a melting point of 166.9 to 181.3 °C.

Molecule `CN(CCC1(O)CCN(CCc2ccc(C#N)cc2)CC1)c1ccc(C(=O)O)cc1` [Example 16, 4-[(2-{1-[2-(4-cyanophenyl)ethyl]-4-hydroxypiperidin-4-yl}ethyl)methylamino]benzoic acid] displayed a melting point of 146.8 to 148.4 °C.

`CN(CC1(O)CN(CCc2ccc(C#N)cc2)C1)c1ccc(C(=O)O)cc1` [Example 17, 4-({1-[2-(4-cyanophenyl)ethyl]-3-hydroxyazetidin-3-ylmethyl}methylamino)benzoic acid] returned a melting point of 197.9 to 199.4 °C.

Turning to `COC(=O)c1ccc(N(C)CC2(O)CCN(Cc3ccc(C#N)cc3)CC2)cc1` [Example 20, methyl 4-{[1-(4-cyanobenzyl)-4-hydroxypiperidin-4-ylmethyl]methylamino}benzoate], the melting point was 127.5 to 137.1 °C.

The molecule `COC(=O)c1ccc(N(C)CC2(O)CCN(CCCc3ccc(C#N)cc3)CC2)cc1` [Example 21, methyl 4-({1-[3-(4-cyanophenyl)propyl]-4-hydroxypiperidin-4-ylmethyl}methylamino)benzoate] returned a melting point of 126.8 to 129.7 °C.

On to `COC(=O)c1ccc(N(C)CC2(O)CCN(CCOc3ccc(C#N)cc3)CC2)cc1` [Example 22, methyl 4-({1-[2-(4-cyanophenoxy)ethyl]-4-hydroxypiperidin-4-ylmethyl}methylamino)benzoate], for which the melting point lay in the range of 112.5 to 113 °C.

For `CN(CC1(O)CCN(CCc2ccc(C#N)cc2)CC1)c1ccc(C(=O)NOC2CCCCO2)cc1` (stereo not shown) [Example 23, 4-({1-[2-(4-cyanophenyl)ethyl]-4-hydroxypiperidin-4-ylmethyl}methylamino)-N-(tetrahydropyran-2-yloxy)benzamide], the melting point was in the range of 100.9 to 102.1 °C.

In turn, `COC(=O)c1ccc(N(C)CC2(O)CCN(CCc3ccc(C(F)(F)F)cc3)CC2)cc1` [Example 24, methyl 4-({4-hydroxy-1-[2-(4-trifluoromethylphenyl)ethyl]piperidin-4-ylmethyl}methylamino)benzoate] came in with a melting point of 142.7 to 143.9 °C.

Turning to `COC(=O)c1ccc(N(C)CC2(OC)CCN(CCc3ccc(C#N)cc3)CC2)cc1` [Example 25, methyl 4-({1-[2-(4-cyanophenyl)ethyl]-4-methoxypiperidin-4-ylmethyl}methylamino)benzoate], the melting point fell in the range of 126.9 to 134.5 °C.

In turn, `CN(CC1(O)CCN(CCc2ccc(C#N)cc2)C1)c1ccc(C(=O)O)cc1.Cl` (stereo not shown) [Example 29, 4-({1-[2-(4-Cyanophenyl)ethyl]-3-hydroxypyrrolidin-3-ylmethyl}methylamino)benzoic acid monohydrochloride] registered a melting point of 122.8 to 132.5 °C.

Consider `COC(=O)c1ccc(SCC2(O)CCN(CCc3ccc(C#N)cc3)CC2)cc1` [Example 42, methyl 4-{1-[2-(4-cyanophenyl)ethyl]-4-hydroxypiperidin-4-ylmethylthio}benzoate], for which the melting point lay within 119.1 to 120.8 °C.

For the molecule `COC(=O)c1ccc([S+]([O-])CC2(O)CCN(CCc3ccc(C#N)cc3)CC2)cc1` (stereo not shown) [Example 44, methyl 4-{1-[2-(4-cyanophenyl)ethyl]-4-hydroxypiperidin-4-ylmethylsulfinyl}benzoate], the melting point fell in the range of 169.6 to 174.5 °C.

Molecule `COC(=O)c1ccc(S(=O)(=O)CC2(O)CCN(CCc3ccc(C#N)cc3)CC2)cc1` [Example 46, methyl 4-{1-[2-(4-cyanophenyl)ethyl]-4-hydroxypiperidin-4-ylmethylsulfonyl}benzoate] had a melting point of 135.4 to 137.2 °C.

A further data set concerns Citric Acid-Induced Cough Reflex in Guinea Pigs. In words: Inhibitory action on citric acid-induced cough reflex in guinea pigs (Experimental Example 1-2, nasal inhalation-exposure apparatus). The data set is classed as in vivo. The settings on record: oral, 30 mg/kg, cough measured 1 hr after treatment. As to the method: Guinea pigs were fasted overnight. They were fixed to an nasal inhalation-exposure apparatus for small animals (M.I.P.S. Co., Ltd.), and then 20 W/V % citric acid solution was sprayed into the plethysmograph for 2 min (about 1 mL/min) using a nebulizer (M.I.P.S. Co., Ltd.). The number of cough response for 15 min after the spray was measured.
as §1, with “5 cough responses” for “5 coughs response”, “compound-treated group.” for “compound-treated group”
As to `CN(CC1(O)CCN(CCc2ccc(C#N)cc2)C1)c1ccc(C(=O)O)cc1.Cl` (stereo not shown) [Example 29, 4-({1-[2-(4-Cyanophenyl)ethyl]-3-hydroxypyrrolidin-3-ylmethyl}methylamino)benzoic acid monohydrochloride], the “Percent inhibition on cough reflex” value is on record as 39%.

(Values after patent US7494987B2, “Agent for treating respiratory diseases containing 4-hydroxypiperidine derivative as active ingredient” (priority 2002, dated 2009).)
